Reference: PubChem BioAssay AID588839 (The Scripps Research Institute Molecular Screening Center, 2011)
Active and inactive are the calls of the source.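 The calls were made as follows: active = EC50 at or below 10 µM; inactive = EC50 above 10 µM.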

target: cAMP-dependent protein kinase type I-alpha regulatory subunit (Bos taurus) + cAMP-dependent protein kinase catalytic subunit beta (Mus musculus) (UniProt P00514+P68181); test: compounds dissociating PKAc from R1A subunit – biochemical, fluorescence polarization, powder samples, late-stage follow-up (AID 588839); conditions: PKA-R1A dissociation, Cy5-IP20 fluorescence polarization

| SMILES | EC50 |
| --- | --- |
| O=C(O)c1sccc1NC(=O)c1c(Cl)cccc1Cl | > 100 µM (inactive) |
| Cc1csc(C(=O)O)c1NC(=O)c1ccc(F)cc1 | > 100 µM (inactive) |
| O=C(O)c1sc2ncccc2c1OCc1ccccc1 | > 100 µM (inactive) |
| CC(C)(C)c1ccc(COc2ccsc2C(=O)O)cc1 | > 100 µM (inactive) |
| Cc1ccc(COc2ccsc2C(=O)O)cc1 | > 100 µM (inactive) |
| O=C(O)c1sccc1SCc1ccc(Cl)c(Cl)c1 | > 100 µM (inactive) |
| COC(=O)c1sc2ncccc2c1OCc1ccc(Cl)cc1Cl | > 100 µM (inactive) |
| O=C(O)c1sccc1SCc1ccc(Cl)cc1Cl | > 100 µM (inactive) |
| COC(=O)c1sc2ncccc2c1OCc1ccccc1Cl | > 100 µM (inactive) |
